Reference: US12331106B2, “Anti-angiopoietin-2 antibodies that induce Tie2 activation” (Institute for Basic Science, priority 2018, dated 2025)
One block for each molecule: values may come before it.

How the values were obtained:
[1] = system: choroidal neovascularization (CNV); test: Laser-induced CNV model, intravitreal injection: CNV regression and vascular leakage; assay type: in vivo, mice; conditions: 5 μg intravitreal at 7 days
Procedure: 2C8H11 antibody was tested for its ability to inhibit choroidal neovascularization (CNV), the hallmark of wet age-related macular degeneration (AMD) using laser-induced CNV model. After dilation of pupils with 5 mg/ml phenylephrine and 5 mg/ml tropicamide eye drops (Santen Pharmaceutical) and instillation of 0.5% proparacaine hydrochloride eye drops (Alcon) for topical anesthesia, laser photocoagulator (Lumenis Inc.) with a slit lamp delivery system was used with a glass coverslip as a contact lens to visualize the retina. Sufficient laser energy (532 nm wavelength, 250 mW power, 100 ms duration, 50 μm spot size) was delivered in 4 locations for each eye (the 3, 6, 9 and 12 o'clock positions of the posterior pole). Only burns that produced a bubble at the time of laser photocoagulation, indicating the rupture of the Bruch's membrane, were included in this study. Spots containing hemorrhage at the laser site were excluded from the analysis. To recapitulate a clinical situation, 2C8H11 (5 μg) was administered intravitreally to the mice at 7 days after laser photocoagulation (FIG. 13A). As a control or as for comparison, Fc or VEGF-Trap (5 μg each) was administered in the same manner to the mice. To intravitreally administer indicated reagents, ˜1 μl (5 mg/ml) containing 5 μg of each reagent was injected into the vitreal cavity using the Nanoliter 2000 micro-injector (World Precision Instruments) fitted with a glass capillary pipette. CD31+CNV volumes of the retinal pigment epithelium (RPE)-choroid-sclera flat mounts were calculated using the MATLAB® Image Processing Toolbox™ (Math Works, a comprehensive set of reference-standard algorithms and workflow apps for image processing, analysis, visualization, and algorithm development) at 14 days after laser photocoagulation. Anti-CD31 antibody (1:200, Millipore®) was used for the detection of endothelial cells of CNV. […] Combined fluorescein angiography (FA) and indocyanine green angiography (ICGA) enabled us to measure vascular leakage at the neovessels around the laser injury site. Continuous-wave laser modules at 488 nm and 785 nm were used as excitation sources for fluorescein and ICG, respectively. A raster scanning pattern of excitation lasers was achieved by a scanner system consisting of a rotating polygonal mirror (MC-5; Lincoln Laser) and a galvanometer-based scanning mirror (6230H; Cambridge technology), and delivered to the back aperture of an imaging lens. A high numerical aperture (NA) objective lens (PlanApo λ, NA 0.75; Nikon) was used as the imaging lens to provide wide-field fundus fluorescence images. Fluorescence signals detected by photomultiplier tubes (R9110; Hamamatsu Photonics) were digitized by frame grabber and reconstructed to images with size of 512×512 pixels per frame in real time. To visualize late-phase (6 min) FA and ICGA images utilizing the angiography system, 10 mg of fluorescein sodium (Alcon) and 0.15 mg of ICG (Daiichi Pharmaceutical) were administered intraperitoneally and intravenously, respectively. The imaging procedure was performed under systemic anesthesia and pupil dilation to improve the quality of images. Leaky areas from CNV were calculated as the total measured hyperfluorescent areas in FA images divided by the total measured CNV areas in ICGA images using a Java-based imaging software (ImajeJ; National Institutes of Health). […] Thus, the magnitude of the suppression of CNV and vascular leakage was quantitatively indistinguishable between VEGF-Trap and 2C8H11 in the mouse model of laser-induced CNV.

[2] = system: choroidal neovascularization (CNV) / choriocapillaris; test: Laser-induced CNV model, OCTA: CNV volume and choriocapillary regeneration (avascular space); assay type: in vivo, mice; conditions: for increased avascular space: 5 μg intravitreal at 7 days
Procedure: To determine the effect of 2C8H11 in CNV regression and choriocapillary regeneration after establishment of CNV, Fc, VEGF-Trap, control antibody or 2C8H11 (5 μg each) was given intravitreally to the mice by the Nanoliter 2000 micro-injector (World Precision Instruments) at 7 days after laser photocoagulation. Intra-vital optical coherence tomography angiography (OCTA) was performed at 6, 14, 21, and 35 days after laser photocoagulation (FIG. 14A). The retinochoroidal layers were imaged using a prototype high-speed swept-source optical coherence tomography (OCT) system, utilizing a custom ring cavity wavelength-swept laser centered at 1048 nm with an A-scan rate of 230 kHz. OCT images were collected in a 1.7 mm×1.7 mm field of view within the retino-choroidal layer to monitor regeneration of choroidal vasculatures at the site of laser photocoagulation after intravitreal injection of reagents. […] Then, by using automatic layer flattening and segmentation algorithms, cross-sectional OCT angiograms were flattened to RPE, and en face OCT angiograms were generated by separate projection of each flattened cross-sectional OCT angiogram in three depth ranges: inner retinal, outer retinal and choroidal layers. The outer plexiform layer and Bruch's membrane were defined as the boundaries separating inner retinal, outer retinal, and choroidal layers. The density of retina and choroid vessel was automatically calculated as the proportion of measured area occupied by flowing blood vessels defined as pixels having decorrelation values above the threshold level. Avascular pixels were detected from the en face OCT angiogram representing choroidal layer by means of the image processing toolbox of MATLAB® (Math Works). Then the total volume of the avascular space surrounding the laser injury site was calculated by summing the number of avascular pixels multiplied by the volume of one pixel. In order to analyze the changing complexion of avascular space volume, serially measured values in each eye were transformed into percentage change from baseline value. […] Overall, these findings indicate that both 2C8H11 and […] promotes regeneration of the choriocapillaris, while VEGF-Trap leads to choriocapillary regression in the laser-induced CNV model.

[3] = biological target: T1, hAng2 (Homo sapiens, UniProt O15123); test: OCTET affinity of humanized anti-Ang2 antibodies against hAng2; assay type: binding; conditions: humanized 4B9 antibodies (IgG1) fixed on AR2G biosensor; hAng2 50-0 nM
T1 sequence (O15123 19-496): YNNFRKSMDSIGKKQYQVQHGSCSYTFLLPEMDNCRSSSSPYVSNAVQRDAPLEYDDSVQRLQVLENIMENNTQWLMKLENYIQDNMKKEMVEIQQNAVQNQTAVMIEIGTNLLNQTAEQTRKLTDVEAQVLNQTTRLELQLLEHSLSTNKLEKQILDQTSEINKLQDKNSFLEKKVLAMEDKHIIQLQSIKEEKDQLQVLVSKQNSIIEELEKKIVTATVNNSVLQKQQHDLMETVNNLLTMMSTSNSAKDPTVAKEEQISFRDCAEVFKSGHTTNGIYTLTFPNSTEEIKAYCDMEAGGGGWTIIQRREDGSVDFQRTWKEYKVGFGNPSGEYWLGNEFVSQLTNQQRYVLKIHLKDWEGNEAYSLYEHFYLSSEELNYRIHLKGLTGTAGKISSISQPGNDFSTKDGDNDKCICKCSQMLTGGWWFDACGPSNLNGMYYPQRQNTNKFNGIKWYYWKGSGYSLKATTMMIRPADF

[4] = system: Tie2 receptor clustering / FOXO1 translocation in HUVECs; test: Tie2 clustering and FOXO1 translocation in HUVECs (immunofluorescence); assay type: cell-based, human; conditions: HUVECs; 30 min; compared to serum-starved control
Procedure: Tie2 clustering at cell-cell junction area and FOXO1 translocation from nucleus to cytosol by anti-Ang2 antibodies were examined in HUVECs by immunofluorescence. Specifically, HUVECs were seeded on 8 well slide chamber (Lab-Tek™ II) and maintained in EGM-2 medium for 2-3 days. At 100% confluence, the cells were serum starved with EBM-2 medium for 4 hrs and then treated with 1 μg/ml anti-Ang2 antibodies together with 1 μg/ml of hAng2 for 30 min. Thereafter, the cells were fixed with 4% formaldehyde in PBS at room temperature (RT) for 10 min, permeabilized with 0.1% TRITON™ X-100 (non-ionic polyoxyethylene surfactant) in PBS, blocked with 1% BSA in PBS at RT for 60 min, and incubated with primary antibodies at RT for 1 hr. The primary antibodies for hTie2, FOXO1, and Human Fc were used. The cells were then incubated with secondary antibodies (Invitrogen) in the dark at RT for 1 hr and mounted with VECTASHIELD® mounting medium with DAPI (Vector Labs, antifade mounting media optimized for immunofluorescence applications). Images were taken with a laser scanning confocal microscope (LSM880, Carl Zeiss).
2C8H11-induced Tie2 clustering and FOXO1 translocation was examined in a time-course study (from 10 min to 240 min). […] 6-4: Inhibition of Vascular Permeability by Humanized Anti-Ang2 Antibodies

Molecule: VEGF-Trap: VEGF-Trap, comparison agent given intravitreally, 5 μg [reference compound]
- vascular leakage suppression compared with Fc ([1]; FA/ICGA, 14 days after laser photocoagulation): 37.0%
- CNV regression compared with Fc (CD31+ CNV volume) ([1]; measured 14 days after laser photocoagulation): 64.4%
- vascular leakage reduction between 6 and 14 days after laser photocoagulation ([1]; within-group): 45.6%
- CNV volume in outer retinas (OCTA) ([2]; 5 μg intravitreal at 7 days after laser photocoagulation): markedly reduced CNV volume
- increased avascular space ([2]; D14): 11.4%
- increased avascular space ([2]; D21): 16.0%
- increased avascular space ([2]; D35): 18.1%

- Kdis [3]: 8.94e-06 s⁻¹
- Kon [3]: 73700 M⁻¹ s⁻¹
B1: 4B9H21: humanized anti-Ang2 human IgG1 antibody from mouse 4B9; VH SEQ ID NO: 47, VL SEQ ID NO: 48 (antibody, V domains shown)
VH: QVQLVESGGGLVKPGGSLRLSCAASGFTFSDYYMYWVRQAPGKGLEWVSTISVGGSFTYYPDSVKGRFTISRDNAKNSLYLQMNSLRAEDTAVYYCARDWGLRPWFVYWGQGTLVTVSS
VL: DIQMTQSPSSLSASVGDRVTITCKASQDVSTAVAWYQQKPGKAPKLLIYWASTRHTGVPSRFSGSGSGTDFTLTISSLQPEDFATYYCQQHYSTPPTFGQGTKVEIK
modifications: human IgG1 constant regions; VH; VL

- Kdis [3]: 1.56e-05 s⁻¹
- Kon [3]: 93900 M⁻¹ s⁻¹
B2: 4B9H31: humanized anti-Ang2 human IgG1 antibody from mouse 4B9; VH SEQ ID NO: 51, VL SEQ ID NO: 52 (antibody, V domains shown)
VH: QVQLVESGGGLVKPGGSLRLSCAASGFTFSDYYMYWVRQAPGKGLEWVATISVGGSFTYYPDSVKGRFTISRDNAKNSLYLQMNSLRAEDTAVYYCARDWGLRPWFVYWGQGTLVTVSS
VL: DIQMTQSPSSLSASVGDRVTITCKASQDVSTAVAWYQQKPGKAPKLLIYWASTRHTGVPSRFSGSGSGTDFTLTISSLQPEDFATYYCQQHYSTPPTFGQGTKVEIK
modifications: human IgG1 constant regions; VH; VL

- FOXO1 translocation from nucleus to cytosol [4]: negligibly induced
B3: Ang2: full-length human angiopoietin-2 protein (R&D Systems), Tie2 ligand, SEQ ID NO: 1 (protein)
chain: MWQIVFFTLSCDLVLAAAYNNFRKSMDSIGKKQYQVQHGSCSYTFLLPEMDNCRSSSSPYVSNAVQRDAPLEYDDSVQRLQVLENIMENNTQWLMKLENYIQDNMKKEMVEIQQNAVQNQTAVMIEIGTNLLNQTAEQTRKLTDVEAQVLNQTTRLELQLLEHSLSTNKLEKQILDQTSEINKLQDKNSFLEKKVLAMEDKHIIQLQSIKEEKDQLQVLVSKQNSIIEELEKKIVTATVNNSVLQKQQHDLMETVNNLLTMMSTSNSAKDPTVAKEEQISFRDCAEVFKSGHTTNGIYTLTFPNSTEEIKAYCDMEAGGGGWTIIQRREDGSVDFQRTWKEYKVGFGNPSGEYWLGNEFVSQLTNQQRYVLKIHLKDWEGNEAYSLYEHFYLSSEELNYRIHLKGLTGTAGKISSISQPGNDFSTKDGDNDKCICKCSQMLTGGWWFDACGPSNLNGMYYPQRQNTNKFNGIKWYYWKGSGYSLKATTMMIRPADF
modifications: Human Angiopoietin-2 full-length
